By IC50 is commonly meant the point on the concentration scale where inhibition reaches its midpoint. Low values mean higher potency, high ones lower potency.

Consider twelve molecules from patent publication US9670212B2, “Inhibitors of PI3K-delta and methods of their use and manufacture” (Exelixis, Inc., priority 2010, dated 2017).

Where only a bound is given, the exact number is not on record here.

PI3K delta, sequence (O00329 whole entry): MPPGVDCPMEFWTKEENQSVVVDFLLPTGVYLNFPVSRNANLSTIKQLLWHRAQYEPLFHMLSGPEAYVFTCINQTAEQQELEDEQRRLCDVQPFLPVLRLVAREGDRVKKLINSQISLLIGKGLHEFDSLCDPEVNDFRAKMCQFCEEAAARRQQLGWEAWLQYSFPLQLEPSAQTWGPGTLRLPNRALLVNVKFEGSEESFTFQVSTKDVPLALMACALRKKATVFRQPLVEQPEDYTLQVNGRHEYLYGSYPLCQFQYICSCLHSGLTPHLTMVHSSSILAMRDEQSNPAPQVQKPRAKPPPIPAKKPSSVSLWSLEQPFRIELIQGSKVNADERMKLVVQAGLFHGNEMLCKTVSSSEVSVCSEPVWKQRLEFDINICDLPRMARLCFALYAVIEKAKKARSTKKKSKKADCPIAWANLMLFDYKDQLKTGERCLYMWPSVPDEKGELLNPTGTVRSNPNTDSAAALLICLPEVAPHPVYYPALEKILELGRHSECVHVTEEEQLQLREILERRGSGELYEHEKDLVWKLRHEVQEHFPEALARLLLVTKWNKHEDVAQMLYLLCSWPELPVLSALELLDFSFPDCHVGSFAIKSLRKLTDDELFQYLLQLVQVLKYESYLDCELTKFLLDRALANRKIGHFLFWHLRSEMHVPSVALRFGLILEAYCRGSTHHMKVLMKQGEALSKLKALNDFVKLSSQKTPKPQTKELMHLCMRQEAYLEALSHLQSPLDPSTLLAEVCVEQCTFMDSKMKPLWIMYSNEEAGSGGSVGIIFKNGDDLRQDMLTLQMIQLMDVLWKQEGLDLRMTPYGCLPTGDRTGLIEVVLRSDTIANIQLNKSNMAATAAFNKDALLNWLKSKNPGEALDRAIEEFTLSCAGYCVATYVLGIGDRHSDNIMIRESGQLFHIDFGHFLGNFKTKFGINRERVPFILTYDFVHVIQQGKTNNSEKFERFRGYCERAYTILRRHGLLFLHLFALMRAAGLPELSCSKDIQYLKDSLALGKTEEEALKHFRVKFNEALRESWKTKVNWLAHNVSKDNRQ
PI3K delta, sequence (P27986 whole entry partner): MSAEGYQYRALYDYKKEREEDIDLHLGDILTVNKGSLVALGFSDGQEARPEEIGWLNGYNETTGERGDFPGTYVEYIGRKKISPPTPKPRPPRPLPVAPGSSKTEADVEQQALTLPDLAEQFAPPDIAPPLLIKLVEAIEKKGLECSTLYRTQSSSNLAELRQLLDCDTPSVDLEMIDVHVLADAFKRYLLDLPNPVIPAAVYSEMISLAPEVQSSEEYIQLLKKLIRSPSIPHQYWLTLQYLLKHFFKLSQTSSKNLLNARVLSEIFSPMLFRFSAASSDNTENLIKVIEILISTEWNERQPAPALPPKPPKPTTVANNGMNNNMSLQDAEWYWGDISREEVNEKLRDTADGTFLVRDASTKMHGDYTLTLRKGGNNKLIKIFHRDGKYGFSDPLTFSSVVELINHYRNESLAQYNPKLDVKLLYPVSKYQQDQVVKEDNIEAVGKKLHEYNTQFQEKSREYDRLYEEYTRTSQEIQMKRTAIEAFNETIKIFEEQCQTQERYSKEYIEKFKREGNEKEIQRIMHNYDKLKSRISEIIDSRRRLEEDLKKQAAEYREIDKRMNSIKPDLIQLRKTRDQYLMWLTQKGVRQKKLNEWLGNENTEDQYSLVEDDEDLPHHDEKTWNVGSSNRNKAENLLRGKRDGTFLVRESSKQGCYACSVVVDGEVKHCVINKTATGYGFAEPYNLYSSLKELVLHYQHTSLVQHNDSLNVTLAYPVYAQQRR

The assay addresses PI3K delta (Homo sapiens (Human), UniProt O00329). The assay can be described thus: Luciferase-coupled chemiluminescence kinase assay (KinaseGlo, ATP consumption). It counts as biochemical. How it is done: Kinase activity and compound inhibition were investigated using one or more of the assay formats described below. The ATP concentrations used in the various assays were approximately equal to or less than the KM for each of the respective kinases. Dose-response experiments were performed using an intra-plate dilution scheme with 10 different inhibitor concentrations in a 384-well microtiter plate. […] Typically N should approximate unity. Curve fitting was performed using XLFit or ActivityBase. Luciferase-Coupled Chemiluminescence Assay Protocol
Kinase activity is measured as the percent of ATP consumed following the kinase reaction using luciferase-luciferin-coupled chemiluminescence. […] Kinase reactions were initiated by combining test compounds, kinase, and ATP in a 20 μL volume (6 μL volume for 1536-well plate). The reaction mixture was incubated at ambient temperature for 2 h. Following the kinase reaction, a 20 μL (or 3 μL for 1536-well plate) aliquot of KinaseGlo (Promega) was added and the chemiluminescence signal measured using an EnVision plate reader (Perkin Elmer).
On to `Cc1ccccc1-c1cc2ccccc2nc1C(C)NC(=O)c1nccnc1N` (stereo not drawn) [Compound 75, 3-amino-N-{1-[3-(2-methylphenyl)quinolin-2-yl]ethyl}pyrazine-2-carboxamide], for which the IC50 was 250 to 500 nM.

`CNC(=O)CN(C)CCN(C)c1nc2c(C)cccc2cc1CNC(=O)c1nccnc1N` [Compound 76, 3-amino-N-({8-methyl-2-[methyl(2-{methyl[2-(methylamino)-2-oxoethyl]amino}ethyl)amino]quinolin-3-yl}methyl)pyrazine-2-carboxamide] gave an IC50 of 50 to 250 nM.

In turn, `Cc1cccc2cc(CNC(=O)c3nccnc3N)c(N(C)CCN(C)CC(=O)N3CCOCC3)nc12` [Compound 77, 3-amino-N-{[8-methyl-2-(methyl{2-[methyl(2-morpholin-4-yl-2-oxoethyl)amino]ethyl}amino)quinolin-3-yl]methyl}pyrazine-2-carboxamide] showed an IC50 of 50 to 250 nM. `Cc1cccc2cc(CNC(=O)c3nccnc3N)c(N(C)CCN(C)C(=O)c3cnccn3)nc12` [Compound 78, 3-amino-N-{[8-methyl-2-(methyl{2-[methyl(pyrazin-2-ylcarbonyl)amino]ethyl}amino)quinolin-3-yl]methyl}pyrazine-2-carboxamide] came in with a half-inhibitory concentration (IC50) of 500 to 1500 nM. Consider `Cc1cccc2cc(CNC(=O)c3nccnc3N)c(N(C)CCN(C)C(=O)c3ccncc3)nc12` [Compound 79, 3-amino-N-{[8-methyl-2-(methyl{2-[methyl(pyridin-4-ylcarbonyl)amino]ethyl}amino)quinolin-3-yl]methyl}pyrazine-2-carboxamide], for which the IC50 fell in the range of 50 to 250 nM. As for `Cc1cccc2cc(CNC(=O)c3nccnc3N)c(N(C)CCN(C)C(=O)c3cccnc3)nc12` [Compound 80, 3-amino-N-{[8-methyl-2-(methyl{2-[methyl(pyridin-3-ylcarbonyl)amino]ethyl}amino)quinolin-3-yl]methyl}pyrazine-2-carboxamide], the IC50 lay within 250 to 500 nM. `Cc1cccc2cc(CNC(=O)c3nccnc3N)c(N(C)CCN(C)C(=O)c3ccccn3)nc12` [Compound 81, 3-amino-N-{[8-methyl-2-(methyl{2-[methyl(pyridin-2-ylcarbonyl)amino]ethyl}amino)quinolin-3-yl]methyl}pyrazine-2-carboxamide] returned an IC50 of 250 to 500 nM. The same measure for `Cc1cccc2cc(CNC(=O)c3nccnc3N)c(N(C)CCN(C)Cc3cccnc3)nc12` [Compound 83, 3-amino-N-{[8-methyl-2-(methyl{2-[methyl(pyridin-3-ylmethyl)amino]ethyl}amino)quinolin-3-yl]methyl}pyrazine-2-carboxamide]: below 50 nM; for `Cc1cccc2cc(CNC(=O)c3nccnc3N)c(N(C)CCN(C)CC#N)nc12` [Compound 84, 3-amino-N-({2-[{2-[(cyanomethyl)(methyl)amino]ethyl}(methyl)amino]-8-methylquinolin-3-yl}methyl)pyrazine-2-carboxamide]: 50 to 250 nM. The same measure for `Cc1cccc2cc(CNC(=O)c3nccnc3N)c(N(C)CCN(C)C(=O)Cn3ccnc3)nc12` [Compound 85, 3-amino-N-({2-[{2-[(1H-imidazol-1-ylacetyl)(methyl)amino]ethyl}(methyl)amino]-8-methylquinolin-3-yl}methyl)pyrazine-2-carboxamide]: below 50 nM; for `Cc1cccc2cc(CNC(=O)c3nccnc3N)c(N(C)CCN(C)C(=O)Cn3ccnc3C)nc12` [Compound 86, 3-amino-N-({8-methyl-2-[methyl(2-{methyl[(2-methyl-1H-imidazol-1-yl)acetyl]amino}ethyl)amino]quinolin-3-yl}methyl)pyrazine-2-carboxamide]: below 50 nM. `Cc1cccc2cc(CNC(=O)c3nccnc3N)c(N(C)Cc3cccnc3)nc12` [Compound 87, 3-amino-N-({8-methyl-2-[methyl(pyridin-3-ylmethyl)amino]quinolin-3-yl}methyl)pyrazine-2-carboxamide] displayed an IC50 of 50 to 250 nM.
